Test results published in patent US20120316245A1, “CO-CRYSTALS OF AGOMELATINE, A PROCESS FOR THERE PREPARATION AND PHARMACEUTICAL COMPOSITIONS CONTAINING THEM” (LES LABORATOIRES SERVIER, priority 2011, published 2012).

Assay: Measurement of the dissolution rate of the co-crystals (tDISS apparatus, pION)
Assay type: physicochemical
Conditions: 37° C., stirring speed 700 rpm
Text: The results obtained are collated in the following tables and are expressed as percentage increases in the dissolution rate of the co-crystal compared to the dissolution rate obtained for agomelatine of form II contained in the marketed Valdoxan® form: [formula]

| Compound | percentage increase in the dissolution rate of the co-crystal compared to agomelatine of form II (Valdoxan) (0.01 N HCl) | percentage increase in the dissolution rate of the co-crystal compared to agomelatine of form II (Valdoxan) (pH 6.8 buffer) |
| --- | --- | --- |
| COc1ccc2cccc(CCNC(C)=O)c2c1.O=C(O)CC(O)(CC(=O)O)C(=O)O [Compound of Example 1, Co-Crystal of Agomelatine/Citric Acid (1/1)] | +25% | +70% |
| COc1ccc2cccc(CCNC(C)=O)c2c1.COc1ccc2cccc(CCNC(C)=O)c2c1.O=C(O)c1cc(O)c(O)c(O)c1 [Compound of Example 2, Co-Crystal of Agomelatine/Gallic Acid (2/1)] | +37% | +29% |
| COc1ccc2cccc(CCNC(C)=O)c2c1.O=C(O)C=CC(=O)O [Compound of Example 3, Co-Crystal of Agomelatine/Maleic Acid (1/1)] | −26% | −4% |
| COc1ccc2cccc(CCNC(C)=O)c2c1.O=C(O)CC(=O)O [Compound of Example 4, Co-Crystal of Agomelatine/Malonic Acid (1/1)] | −55% | −21% |
| COc1ccc2cccc(CCNC(C)=O)c2c1.COc1ccc2cccc(CCNC(C)=O)c2c1.O=C(O)c1ccc(O)cc1 [Compound of Example 5, Co-Crystal of Agomelatine/Para-Hydroxybenzoic Acid (2/1)] | +97% | +89% |
| COc1ccc2cccc(CCNC(C)=O)c2c1.O=C(O)c1ccc(O)cc1.O=C(O)c1ccc(O)cc1 [Compound of Example 6, Co-Crystal of Agomelatine/Para-Hydroxybenzoic Acid (1/2)] | +19% | +46% |
| COc1ccc2cccc(CCNC(C)=O)c2c1.COc1ccc2cccc(CCNC(C)=O)c2c1.O=C(O)C(=O)O [Compound of Example 7, Co-Crystal of Agomelatine/Oxalic Acid (2/1)] | +1.5% | +33% |
| COc1ccc2cccc(CCNC(C)=O)c2c1.O=C(O)CCCC(=O)O [Compound of Example 8, Co-Crystal of Agomelatine/Glutaric Acid (1/1)] | −42% | −29% |
| COc1ccc2cccc(CCNC(C)=O)c2c1.O=C(O)CCC(=O)C(=O)O [Compound of Example 9, Co-Crystal of Agomelatine/Ketoglutaric Acid (1/1)] | −47% | −32% |
| COc1ccc2cccc(CCNC(C)=O)c2c1.O=C(O)CO [Compound of Example 10, Co-Crystal of Agomelatine/Glycolic Acid (1/1)] | −30% | −30% |
